Measured values published in patent publication US20230382925A1, “MODULATORS OF CYSTIC FIBROSIS TRANSMEMBRANE CONDUCTANCE REGULATOR” (VERTEX PHARMACEUTICALS INCORPORATED, priority 2020, published 2023).
Like-named read-outs stand apart in the source and are kept apart here.

Target: CFTR (Homo sapiens, UniProt P13569)
Assay: Membrane Potential Dye, Enteroid Assay B
Format: cell-based
Summary of the method: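 Human intestinal enteroid cells exposed to compound 18-24 h at 37 °C, then loaded with methyl oxonol membrane-potential dye plus CaCC blockers. Chloride transport triggered in chloride-free buffer with 10 μM forskolin, 100 μM IBMX, 300 nM Compound III; fluorescence read 15 min, expressed as % of triple-corrector/potentiator combination control.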

[1] = Table 10, read-out: Ent. B EC50

CFTR, sequence (P13569 with tags, fused parts or gaps DEL508-508): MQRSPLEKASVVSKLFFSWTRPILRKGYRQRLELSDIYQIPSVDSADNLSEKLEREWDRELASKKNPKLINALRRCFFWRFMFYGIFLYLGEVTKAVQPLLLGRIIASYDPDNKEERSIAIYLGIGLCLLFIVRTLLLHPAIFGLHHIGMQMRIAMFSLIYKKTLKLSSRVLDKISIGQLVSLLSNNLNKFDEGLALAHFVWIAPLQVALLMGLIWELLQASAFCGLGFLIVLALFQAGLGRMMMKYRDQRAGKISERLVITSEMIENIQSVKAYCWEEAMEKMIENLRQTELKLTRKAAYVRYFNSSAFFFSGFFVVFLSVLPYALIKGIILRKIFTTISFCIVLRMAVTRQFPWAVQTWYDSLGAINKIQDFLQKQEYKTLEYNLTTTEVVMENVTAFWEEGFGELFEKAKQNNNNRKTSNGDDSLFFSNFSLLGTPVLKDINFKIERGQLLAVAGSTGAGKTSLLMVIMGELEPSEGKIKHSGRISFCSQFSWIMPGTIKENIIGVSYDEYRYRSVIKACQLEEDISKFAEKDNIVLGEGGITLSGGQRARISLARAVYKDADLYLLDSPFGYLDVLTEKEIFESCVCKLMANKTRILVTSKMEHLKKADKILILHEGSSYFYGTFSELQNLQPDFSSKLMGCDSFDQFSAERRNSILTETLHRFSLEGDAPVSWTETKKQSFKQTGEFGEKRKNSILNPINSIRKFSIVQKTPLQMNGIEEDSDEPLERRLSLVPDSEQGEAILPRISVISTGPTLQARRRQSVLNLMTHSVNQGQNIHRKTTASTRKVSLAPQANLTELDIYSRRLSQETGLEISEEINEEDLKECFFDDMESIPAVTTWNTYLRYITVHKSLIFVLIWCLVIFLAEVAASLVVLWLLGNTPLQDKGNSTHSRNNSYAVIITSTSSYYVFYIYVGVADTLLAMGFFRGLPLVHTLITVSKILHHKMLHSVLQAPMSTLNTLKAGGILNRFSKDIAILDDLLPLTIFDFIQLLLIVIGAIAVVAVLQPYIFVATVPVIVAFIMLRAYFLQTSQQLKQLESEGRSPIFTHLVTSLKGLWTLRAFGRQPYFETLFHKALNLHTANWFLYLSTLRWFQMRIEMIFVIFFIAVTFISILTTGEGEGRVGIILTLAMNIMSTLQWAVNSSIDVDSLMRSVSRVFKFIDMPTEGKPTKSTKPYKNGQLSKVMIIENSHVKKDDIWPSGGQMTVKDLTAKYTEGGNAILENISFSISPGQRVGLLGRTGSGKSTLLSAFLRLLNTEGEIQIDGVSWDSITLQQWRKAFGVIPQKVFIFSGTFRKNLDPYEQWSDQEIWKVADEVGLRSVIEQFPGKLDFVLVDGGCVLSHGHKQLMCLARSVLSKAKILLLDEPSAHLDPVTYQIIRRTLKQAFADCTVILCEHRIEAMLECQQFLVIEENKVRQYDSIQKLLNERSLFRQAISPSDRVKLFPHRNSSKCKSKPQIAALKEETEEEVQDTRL

| Structure (SMILES) | Ent. B Max Activity (%) (Table 9) | EC50 (Table 9, read-out: Ent. B EC50) [nM] | further results |
| --- | --- | --- | --- |
| CCC(=O)N1CCC2(CC1)CC(N1C(=O)c3cccc(c3)S(=O)(=O)Nc3nc(cc(-c4c(C)cccc4C)n3)OC[C@H]1CC(C)(C)C(F)(F)F)C2 [Compound 417] |  |  | Ent. B Max Activity (%) (Table 10): +++ (+++ is >60%); EC50 [1]: < 1000 nM |
| COC(=O)NC1CC(N2C(=O)c3cccc(c3)S(=O)(=O)Nc3nc(cc(-c4c(C)cccc4C)n3)OC[C@H]2CC(C)(C)C(F)(F)F)C1 (some centres unmarked) [Compound 418] | +++ (+++ is >60%) | < 1000 |  |
| COC(=O)NC1CC(N2C(=O)c3cccc(c3)S(=O)(=O)Nc3nc(cc(-c4c(C)cccc4C)n3)OC[C@H]2CC(C)(C)C(F)(F)F)C1 (some centres unmarked) [Compound 419] |  |  | Ent. B Max Activity (%) (Table 10): +++ (+++ is >60%); EC50 [1]: < 1000 nM |
| CC(=O)N1CCC2(CC1)CC(N1C(=O)c3cccc(c3)S(=O)(=O)Nc3nc(cc(-c4c(C)cccc4C)n3)OC[C@H]1CC(C)(C)C(F)(F)F)C2 [Compound 420] | +++ (+++ is >60%) | < 1000 |  |
| Cc1cccc(C)c1-c1cc2nc(n1)NS(=O)(=O)c1cccc(c1)C(=O)N(C1CC3(CCN(C(=O)OC(C)C)CC3)C1)[C@H](CC(C)(C)C(F)(F)F)CO2 [Compound 421] | +++ (+++ is >60%) | < 1000 |  |
| COCCN1CCC2(CC1)CC(N1C(=O)c3cccc(n3)S(=O)(=O)Nc3cc(cc(-c4c(C)cccc4C)n3)OC[C@H]1CC(C)C)C2 [Compound 422] | +++ (+++ is >60%) |  |  |
| Cc1ccc(F)c(C)c1-c1cc2nc(n1)NS(=O)(=O)c1cccc(c1)C(=O)N(C1CC3(CC3)C1)[C@H](CC(C)C)CO2 [Compound 424] | +++ (+++ is >60%) | < 1000 |  |
| Cc1cccc(C)c1-c1cc2cc(n1)NS(=O)(=O)c1cccc(n1)C(=O)N(C1CC3(CC3)C1)[C@H](CC1(C(F)(F)F)CC1)CO2 [Compound 425] | +++ (+++ is >60%) | < 1000 |  |
| Cc1cccc(C)c1-c1cc2nc(n1)NS(=O)(=O)c1cc(n(C)n1)C(=O)N(C1CC3(C1)CC(C(C)(C)O)C3)[C@H](CC(C)(C)C)CO2 (some centres unmarked) [Compound 436] |  |  | Ent. B Max Activity (%) (Table 10): +++ (+++ is >60%); EC50 [1]: < 1000 nM |
| Cc1cccc(C)c1-c1cc2nc(n1)NS(=O)(=O)c1cccc(c1)C(=O)N(C1CC3(CCN(C(=O)OC(C)(C)C)CC3)C1)[C@H](CC(C)(C)C)CO2 [Compound 437] |  |  | Ent. B Max Activity (%): ++ (++ is 30-60%); EC50 (read-out: Ent. B EC50): < 1000 nM |
| Cc1cccc(C)c1-c1cc2nc(n1)NS(=O)(=O)c1cccc(c1)C(=O)N(C1CCN(C)CC1)CC(CC(C)C)CO2 (centres unmarked) [Compound 440] | ++ (++ is 30-60%) | 1000 to 3000 |  |
| Cc1cccc(C)c1-c1cc2nc(n1)NS(=O)(=O)c1cccc(c1)C(=O)N(C1CCC3(CC1)CC3)C[C@@H](C)O2 [Compound 442] |  |  | Ent. B Max Activity (%): ++ (++ is 30-60%); EC50 (read-out: Ent. B EC50): < 1000 nM |
| COC(=O)NC1CC2(C1)CC(N1C(=O)c3cccc(c3)S(=O)(=O)Nc3nc(cc(-c4c(C)cccc4C)n3)O[C@@H](C)[C@H]1C)C2 (some centres unmarked) [Compound 443] |  |  | Ent. B Max Activity (%) (Table 10): ++ (++ is 30-60%); EC50 [1]: < 1000 nM |

Continued, in another order:

| Ent. B Max Activity (%) (Table 9) | EC50 (Table 9, read-out: Ent. B EC50) [nM] | Structure (SMILES) | further results |
| --- | --- | --- | --- |
| +++ (+++ is >60%) | < 1000 | Cc1cccc(C)c1-c1cc2nc(n1)NS(=O)(=O)c1cccc(c1)C(=O)N(C1CCN(C)CC1)CC(CC(C)C)CO2 (centres unmarked) [Compound 441] |  |
| +++ (+++ is >60%) | < 1000 | CC(=O)N1CC2(CC(N3C(=O)c4cccc(c4)S(=O)(=O)Nc4nc(cc(-c5c(C)cccc5C)n4)OC[C@H]3CC3(C(F)(F)F)CC3)C2)C1 [Compound 452] |  |
| +++ (+++ is >60%) | < 1000 | COC(=O)N1CC2(CC(N3C(=O)c4cccc(c4)S(=O)(=O)Nc4nc(cc(-c5c(C)cccc5C)n4)OC[C@H]3CC3(C(F)(F)F)CC3)C2)C1 [Compound 453] |  |
| +++ (+++ is >60%) | < 1000 | CO[C@@H](C)C(=O)N1CCC2(CC1)CC(N1C(=O)c3cccc(c3)S(=O)(=O)Nc3nc(cc(-c4c(C)cccc4C)n3)OC[C@H]1CC(C)C)C2 [Compound 454] |  |
| +++ (+++ is >60%) | < 1000 | Cc1cccc(C)c1-c1cc2nc(n1)NS(=O)(=O)c1cccc(c1)C(=O)N(C1CC3(CCN(C(=O)[C@@H](C)O)CC3)C1)[C@H](CC(C)C)CO2 [Compound 455] |  |
| +++ (+++ is >60%) | < 1000 | Cc1cccc(C)c1-c1cc2nc(n1)NS(=O)(=O)c1cccc(c1)C(=O)N(C1CC3(CCN(C(=O)[C@H](C)O)CC3)C1)[C@H](CC(C)C)CO2 [Compound 456] |  |
| +++ (+++ is >60%) | < 1000 | CO[C@H](C)C(=O)N1CCC2(CC1)CC(N1C(=O)c3cccc(c3)S(=O)(=O)Nc3nc(cc(-c4c(C)cccc4C)n3)OC[C@H]1CC(C)C)C2 [Compound 457] |  |
| +++ (+++ is >60%) | < 1000 | Cc1cccc(C)c1-c1cc2nc(n1)NS(=O)(=O)c1cccc(c1)C(=O)N(C1CC3(CCN(C(=O)COC(C)C)CC3)C1)[C@H](CC(C)C)CO2 [Compound 458] |  |
